pIC50: −log10 of the molar value. Like-named read-outs stand apart in the source and are kept apart here.
Columns and labels:
NC(11-55) = NC(11-55) (Human immunodeficiency virus type 1, UniProt P12493); assay: NC inhibition assay (NC-induced cTAR DNA destabilization, fluorescence); format: biochemical, HIV-1; settings: for inhibition at 100 µM: single point screening, positive = >25% inhibition at 100µM
Text: The NC inhibition assay is based on the nucleic acid chaperone activity of the NC protein. NC destabilizes the secondary structure of cTAR DNA, the complementary sequence of the transactivation response element, which is involved in minus-strand DNA transfer during reverse transcription. In the assay, the cTAR sequence from the HIV-1 Mal strain (Bernacchi et al, J Mol Biol, 2002) is labeled with a dye (Alexa488 fluorophore) and a quencher 4-(4'-dimethylaminophenylazo)benzoic acid (Dabcyl) at its 5' and 3' ends, respectively. In the absence of destabilization, the close proximity of both cTAR ends results in a strong fluorescence quenching of the dye emission by the Dabcyl group. NC(11-55) added to cTAR at a ratio of 10 NC/cTAR melts the bottom of the cTAR stem, which increases the distance between the dye and the quencher and as a result increases the dye fluorescence signal [Shvadchak et al, (2009) Identification by high throughput screening of small compounds inhibiting the nucleic acid destabilization activity of the HIV-1 nucleocapsid protein. Biochimie, 916-923]. NCIs are expected to prevent the NC-induced destabilization of cTAR and thus reverse the NC-induced increase in the fluorescence of the labeled cTAR. The activity of the inhibitor is thus evaluated from the ratio of the fluorescence intensity observed in the presence of NC with the molecule to the one in the absence of the compound.
The doubly labelled cTAR DNA oligonucleotides (55nt) were synthesised and purified by IBA GmbH Nucleic Acids Product Supply (Göttingen, Germany). Extinction coefficient at 260 nm of 5.73 x 10^5 M^-1 cm^-1 was used to determine the concentration of cTAR.
The NC(11-55) peptide (Avilov et al, Antimicrob Agents Chemother, 2012) was synthesized by solid-phase peptide synthesis on a 433A synthesizer (ABI, Foster City, CA) as previously described [De Rocquigny H, (1991) First large scale chemical synthesis of the 72 amino acid HIV-1 nucleocapsid protein NCp7 in an active form. Biochem Biophys Res Commun., 1010-1018]. The peptide was stored lyophilized and was resuspended in water before use. The concentration of peptide was determined by using an extinction coefficient of 5.7 x 10^3 M^-1 cm^-1 at 280 nm. Next, 2.5 molar equivalents of ZnSO4 were added and pH was raised to its final value by adding buffer.
All experiments were performed at 20 °C in 25 mM Tris-HCl (pH 7.5), 30 mM NaCl, and 0.2 mM MgCl2. To evaluate the inhibition activity of compounds on NC-induced cTAR destabilization, cTAR DNA (0.1 µM) was preincubated with 1 µM NC(11-55) (molar ratio NC:cTAR = 10:1) for 15 min at room temperature before addition of compound. For single point screening, all compounds were tested at three final concentrations: 1 µM, 10 µM and 100 µM. For the IC50 determination, inhibition of NC-induced cTAR melting was monitored through addition of increasing concentrations of the selected molecules to the pre-formed NC(11-55)-cTAR complex. After the addition of compound, the mixture was incubated for 15 min at room temperature before the reading. The fluorescence signal was recorded with a plate reader Xenius (SAFAS Monaco) or Fluoromax 3 spectrofluorometer (Horiba Jobin-Yvon), and the excitation and emission wavelengths were 480 and 520 nm, respectively. The spectra were corrected for dilution, buffer fluorescence and screening effect (when it was required). In order to check the occurrence of aggregation, we performed additional reading of absorption with the plate reader Xenius (SAFAS Monaco) or Cary 4000 spectrophotometer (Agilent). […]

[1] = target: T1, full length (1-55) HIV-1 NCp7 (Human immunodeficiency virus type 1 group M subtype B, UniProt P12493); assay: Electromobility Shift Assay (EMSA), competition for ssDNA binding; settings: NCp7 300 nM, M13mp18 ssDNA; positive = >25% inhibition at 100µM
T1 construct: recombinant full length (1-55) HIV-1 NCp7 proteins; made in house
Text: The assay used a recombinant full length (1-55) HIV-1 NCp7 proteins based on the NL4-3 sequence (GenBank accession number AF324493). The protein was expressed and purified as described in [Carteau, S., Gorelick, R. J. & Bushman, F. D. Coupled integration of human immunodeficiency virus type 1 cDNA ends by purified integrase in vitro: stimulation by the viral nucleocapsid protein. Journal of virology 73, 6670-6679 (1999)].
Competition for single-stranded (ss) DNA binding was realized by mixing 1 µL of serial dilutions of NC inhibitors (diluted in DMSO) with 44 µL of NCp7 (300 nM) in a reaction buffer (20 mM Tris-HCl pH 7.4, 2 mM MgCl2, 100 mM NaCl, 1 mM DTT). 5 µL of a 10 ng/µL (4 nM) solution of M13mp18 ssDNA (BayouBiolabs) were then added and the tubes were incubated for 25 minutes at 37 °C. The reaction was terminated by chilling the tubes on ice followed by the addition of 5 µL of a loading buffer (30% glycerol, 0.01% xylene cyanol, 10 mM Tris-HCl pH 7.4). Samples were then resolved on 25 cm-long, 1% (w/v) agarose gels (SeaKem LE Agarose, Lonza) in 0.5x TBE. Gels were run in a Sub-Cell GT cuvette (BioRad) for 18 h at room temperature at 3 V/cm, stained with SybrGold (Molecular Probes) and scanned for fluorescence using a Typhoon 8600 (GE Healthcare). The experiments were performed in triplicate. Competition efficiency was realized by measuring the relative distance in pixels between the unbound ssDNA control, the NCp7-bound ssDNA control and the bound ssDNA for each points of the titration with the ImageQuant software. The IC50 was estimated as the NC inhibitors concentrations for which the bound ssDNA migrated at 50% of the distance separating the bound from the unbound ssDNA.

[2] = test system: Peripheral blood mononuclear cells (PBMC); format: cell-based; settings: human, 7 days
Experimental: Peripheral blood mononuclear cells (PBMC) obtained from healthy donors by separation over Ficoll-Hypaque (GEHealthear-Cat.# GEH17-1440-02) were suspended at 2x10^6 cells/mL in RPMI 1640 (Biowest-Cat.#L0501-500) supplemented with 10% of heat-inactivated sterile fetal bovine serum (Gibco-Cat.#10270-106), 2 mmol/l L-glutamine (Biowest-Cat.#X0550-100), 50 U/mL Penicillin-50 µg/mL Streptomycin (Biowest-Cat.#L0022-100), referred to as complete medium (CM). PBMC were supplemented with 5 µg/mL of phytohaemagglutinin (Sigma Aldr-Cat.#L1668) and cultured in 75 cm^2 flasks (Sarsted-Cat.#833.911.002) for 2 days at 37 °C in a humidified atmosphere with 5% CO2.
PBMC were then washed in CM, counted by trypan blue exclusion (Gibco-Cat. #15250-061), centrifuged and suspended in fresh CM supplemented with 20 IU/mL recombinant human IL-2 (Miltenyi Biotec-Cat.#130-097-748) and seeded in a 96-well-tissue culture plate (Sarsted-Ca#831.837) at the density of 5x10^5 cells/mL (or 1x10^5 cells in 200 µL final CM volume per well). Cells were left untreated (negative control) or treated with different concentrations of the compounds.
After 7 days of incubation cytotoxicity was determined using Promega's CellTiter 96(R) AQueous One Solution Cell Proliferation Assay (MTS assay) (Promega-Cat.#G3581) according to the manufacturer's instuctions. This is a colorimetric method for determining the number of viable cells in proliferation or cytotoxicity assays. The MTS tetrazolium compound is bioreduced by cells into a colored formazan product that is soluble in tissue culture medium. This conversion is presumably accomplished by NADPH or NADH produced by dehydrogenase enzymes in metabolically active cells.
Briefly, MTS solution was thawed at room temperature, or in a water bath at 37 °C and 40 µL of MTS solution was pipeted into each well of the 96-well assay plate containing the samples in 200 µL of culture medium and incubated at 37 °C, 5% CO2 for 4 hours. The optical density was read at 490 nm using a 96-well plate reader (Tecan Infinite F50) and TD50 (toxic dose 50%, dose killing 50% of the cells compared to untreated control) value was calculated by interpolation of the curve obtained by plotting dose against percent mortality and by using "Magellan data analysis software". CM alone plus MTS solution was used as a blank, and cell culture well without compound was used as a cellular control.

HeLa cells = assay: HeLa Proliferation assay (CellTiter Glo); format: cell-based; settings: 72 hours
Experimental: HeLa cells (ATCC® CCL2™) in DMEM (Dulbecco Modified Eagle's Medium) without phenol red, Thermo, 11880, USA + 10% FBS + 1X PenStrep + 1X Gln or HUVEC cells (ATCC® CRL1730™) in EBM-2 (Endothelial Growth Basal Medium, Lonza, CC3156) + EGM-2 SingleQuotsTMSupplements and Growth Factors (Lonza, CC4176) + 1X Penicyllin-Streptomycin (PenStrep, ThermoFisher) + 1X Glutamine, are plated in a 384 well plate (Thermo, 4334-11, USA) to a density of 2000 cells per well and let recover for four hours at 37 °C, 5% CO2 in a humidified atmosphere. After the recovery, compounds are transferred to assay plates as per compound preparation method. Assay plates are then incubated at 37 °C, 5% CO2 in a humidified atmosphere for 72 hours. Cell viability is measured by the CellTiter Glo (Promega, G8080, USA) as per manufacturer instruction.

[3] = test system: HIV-1 reference strain NL4-3; assay: BiCycle assay (MT-2 then TZM-bl cells); format: cell-based; settings: Human immunodeficiency virus 1, NL43, TZM-bl, read-out: BiCycle IC50 nM
Experimental: BiCycle Assay is cell based assay allowing the evaluation of the antiviral activity of HIV-1 inhibitors on the whole replication cycle of HIV-1. The assay consists in a first round of infection of the T-cell line MT-2 followed by infection of TZM-bl cells. MT-2 cells were seeded at a concentration of 50,000 cells/well in a 96-well plate and infected with the HIV-1 reference strain NL4-3 in presence of five-fold dilutions of the investigational compounds. After 72 hours, 50 µl of supernatant from each well, containing the virus produced in the first round of infection, were used to infect TZM-bl cells seeded in a 96-plate well at a concentration of 30,000 cells/well. Two days later, cells were lysed adding 40 µl of Glo Lysis Buffer (Promega) to each well for 5 minutes, then 40 µl of Brighy-Glo Luciferase Reagent (Promega) were added to each well for relative luminescence units (RLU) counting using Glo-Max Multi Detection System (Promega). RLU values from each well were elaborated using the GraphPad v5.0 software to calculate the IC50 of each compound.

[4] = cTAR DNA 0.1 µM, 1 µM NC(11-55), 20 °C, pH 7.5, read-out: NC inhibition IC50

Structure (SMILES): CCNCc1ccnc(-c2nc(O)c(O)c(C(=O)N[C@H](C)C3CCCCC3)n2)c1 [Compound 95, (R)-N-(1-cyclohexylethyl)-2-(4-((ethylamino)methyl)pyridin-2-yl)-5,6-dihydroxypyrimidine-4-carboxamide]
- pIC50 (NC(11-55); [4]): 4.55
- inhibition at 100 µM (NC(11-55)): > 25%
- EMSA screening results [1]: Negative

Structure (SMILES): C[C@@H](NC(=O)c1nc(-c2cc(CNCc3ccccc3)ccn2)nc(O)c1O)C1CCCCC1 [Compound 96, (R)-2-(4-((benzylamino)methyl)pyridin-2-yl)-N (1-cyclohexylethyl)-5,6-dihydroxypyrimidine-4-carboxamide]
- inhibition at 100 µM (NC(11-55)): > 25%
- EMSA screening results [1]: Negative

Structure (SMILES): C[C@@H](NC(=O)c1nc(-c2ccc(N3CCN(C)CC3)cn2)nc(O)c1O)C1CCCCC1 [Compound 94, (R)-N-(1-cyclohexylethyl)-5,6-dihydroxy-2-(5-(4-methylpiperazin-1-yl)pyridin-2-yl)pyrimidine-4-carboxamide]
- pIC50 (NC(11-55)): 4.74
- inhibition at 100 µM (NC(11-55)): > 25%
- EMSA screening results [1]: Negative
- Proliferation assay PBMC TD50 [2]: 740 nM

Structure (SMILES): O=C(NC1(C2CCCCC2)CC1)c1nc(-c2cc3ccccc3cn2)nc(O)c1O [Compound 83, N-(1-cyclohexylcyclopropyl)-5,6-dihydroxy-2-(isoquinolin-3-yl)pyrimidine-4-carboxamide]
- inhibition at 100 µM (NC(11-55)): > 25%
- EMSA screening results [1]: Positive (A compound showing >25% inhibition when tested at 100µM concentration is considered as "positive")

Structure (SMILES): C[C@@H](NC(=O)c1nc(-c2ccc(NC(=O)c3cnco3)cn2)nc(O)c1O)C1CCCCC1 [Compound 82, (R)-N-(6-(4-((1-cyclohexylethyl)carbamoyl)-5,6-dihydroxypyrimidin-2-yl)pyridin-3-yl)oxazole-5-carboxamide]
- pIC50 (NC(11-55); [4]): 4.71
- inhibition at 100 µM (NC(11-55)): > 25%
- EMSA screening results [1]: Positive (A compound showing >25% inhibition when tested at 100µM concentration is considered as "positive")
- Proliferation assay HELA TD50 (HeLa cells): 6.5308 µM

Structure (SMILES): C[C@@H](NC(=O)c1nc(-c2cc([N+](=O)[O-])ccn2)nc(O)c1O)C1CCCCC1 [Compound 40, (R)-N-(1-cyclohexylethyl)-5,6-dihydroxy-2-(4-nitropyridin-2-yl)pyrimidine-4-carboxamide]
- pIC50 (NC(11-55); [4]): 5.20
- inhibition at 100 µM (NC(11-55)): > 25%
- EMSA screening results [1]: Positive (A compound showing >25% inhibition when tested at 100µM concentration is considered as "positive")

Structure (SMILES): C[C@@H](NC(=O)c1nc(-c2ncccc2NC(=O)OC(C)(C)C)nc(O)c1O)C1CCCCC1 [Compound 42, tert-butyl (R)-(2-(4-((1-cyclohexylethyl)carbamoyl)-5,6-dihydroxypyrimidin-2-yl)pyridin-3-yl)carbamate]
- pIC50 (NC(11-55); [4]): 4.84
- inhibition at 100 µM (NC(11-55)): > 25%
- EMSA screening results [1]: Positive (A compound showing >25% inhibition when tested at 100µM concentration is considered as "positive")
- IC50 [3]: 1600 nM

Source: EP3290412A1, “HIV-1 NUCLEOCAPSID INHIBITORS” (Università degli Studi di Siena, priority 2016, dated 2018)
